Results published in PMC10304174, “Development of Zeise’s Salt Derivatives Bearing Substituted Acetylsalicylic Acid Substructures as Cytotoxic COX Inhibitors” (Pharmaceutics, 2023).

Assays:
[1] = Complex stability by capillary electrophoresis (decrease of initial complex over time); format: physicochemical; conditions: MeOH/water (50/50, v/v), 1 mM, 37 °C, CE
Method: The analysis was performed as previously described. A 50 mM sodium tetraborate solution (pH = 9.3, adjusted with 1 M NaOH), served as background electrolyte (BGE). Washing of novel capillaries consecutively with 1 M NaOH (45 min), water (45 min), and BGE (45 min) was performed. The hydrodynamic injection mode was utilized to introduce the samples into the capillary (50 mbar for 2 s). The capillary was kept at 25 °C, and the autosampler was thermostatted at 37 °C with an external water bath. For separation, the voltage was set to 20 kV, and the detection was carried out at the wavelength of 230 nm. Before each measurement, flushing of the capillary with 0.1 M NaOH (3 min), water (3 min), and BGE (5 min) took place. The samples were dissolved in methanol (MeOH) and further diluted in equal parts by volume with water to give a final concentration of 1 mM. Triple determinations were performed, and the half-lives (τ½) are presented as mean ± SD of ≥3 independent experiments. Samples, washing solutions, and buffers were filtered through a membrane with 0.22 µm porosity and degassed by ultrasonication before use. To simplify the reaction dynamics from a possible second-order to pseudo-first-order, one of two reactants must be present in great excess (>10 to 25-fold). If this condition is fulfilled, logarithmic plotting of the gradual decrease in the other reactant’s concentration (or increase in the concentration of a product, respectively) against the time yields a straight line, and half-lives can be calculated.
An already-established method was used to study the stability of the X-ASA-Prop-PtCl3 and X-ASA-But-PtCl3 complexes. The degradation products were separated by capillary electrophoresis using a fused-silica capillary ([…] × 75 µm, effective length: 56 cm, capillary temperature: 25 °C) and a 50 mM tetraborate buffer (pH = 9.3) as BGE. For separation, the voltage was set to 20 kV and the compounds were detected at 230 nm. Benzoic acid was used as an internal standard. Exemplary electropherograms of each complex can be found in the Supplementary Material (Figures S1–S24).
The complexes (1 mM) were dissolved in MeOH or MeOH/water (50/50, v/v) and stored at 37 °C. The decrease in the initial amount of complex was monitored time-dependently by CE, and the half-life (τ½) was calculated (Table 2).

HT-29 cells = assay: Crystal violet assay, antiproliferative effects in HT-29 cells; format: cell-based; conditions: HT-29 (COX-1/2-positive), 72 h
Method: (§1) In order to investigate the cytotoxic effects in MCF-7 and HT-29 cells, an already published crystal violet assay was used. The cells (HT-29: 3 × 10^3 cells per well in 100 µL of medium; MCF-7: 2 × 10^3 cells per well in 100 µL of medium) were seeded in their exponential growth phase in completed DMEM into 96-well microtiter plates in quadruples. […] Cells were then fixed with a solution of 1% (v/v) glutaric dialdehyde in PBS. In order to determine the cell biomass, the chromatin of the attached cells was stained with crystal violet, and the bound dye was extracted with EtOH (70%). The absorbance was measured at 590 nm. Mean values ± SD of ≥2 independent experiments were calculated, and the activity of the complexes was expressed as the cell mass of the vehicle-treated control, which was set to 100%.
(§2) The compounds were investigated regarding their cytotoxicity (in vitro) employing an already published crystal violet assay. It is based on the quantification of the cell biomass of living cells by staining the chromatin. In order to evaluate the possible influence of COX inhibition on cell growth, Zeise’s salt derivatives were investigated comparatively in HT-29 and MCF-7 cell lines.

MCF-7 cells = assay: Crystal violet assay, antiproliferative effects in MCF-7 cells; format: cell-based; conditions: MCF-7 (COX-negative), 72 h
Method: as §1, §2

COX-2 = molecular target: T1, COX-2 (Homo sapiens, UniProt P35354); assay: COX Inhibitor Screening Assay (EIA) on isolated COX-2 isoenzyme; format: biochemical; conditions: for Inhibition of COX-2: 1 µM, incubation 10 min
T1 construct: purchased Cayman Chemicals
T1 sequence (P35354 18-604): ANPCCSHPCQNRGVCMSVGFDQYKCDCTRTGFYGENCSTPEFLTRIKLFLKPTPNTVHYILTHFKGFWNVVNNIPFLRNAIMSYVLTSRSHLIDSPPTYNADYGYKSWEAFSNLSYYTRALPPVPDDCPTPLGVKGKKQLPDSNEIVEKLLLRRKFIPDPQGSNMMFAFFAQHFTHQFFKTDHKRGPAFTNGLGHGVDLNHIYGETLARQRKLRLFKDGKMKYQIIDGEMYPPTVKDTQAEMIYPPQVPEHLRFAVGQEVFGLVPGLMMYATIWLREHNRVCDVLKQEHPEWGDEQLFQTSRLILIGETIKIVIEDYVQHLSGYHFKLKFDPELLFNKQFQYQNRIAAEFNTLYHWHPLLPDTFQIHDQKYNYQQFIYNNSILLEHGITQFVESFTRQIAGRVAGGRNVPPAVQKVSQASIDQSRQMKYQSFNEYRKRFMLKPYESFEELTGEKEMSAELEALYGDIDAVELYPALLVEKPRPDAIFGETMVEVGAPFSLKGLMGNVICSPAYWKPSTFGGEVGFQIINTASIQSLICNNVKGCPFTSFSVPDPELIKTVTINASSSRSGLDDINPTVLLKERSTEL
Method: The incubation of the respective complexes with the isoenzymes was exactly 10 min. The values of COX inhibition were calculated as the mean of duplicates and shown as the mean ± SD of ≥2 independent experiments.

CC(=O)Oc1cc(F)ccc1C(=O)OCC[CH]1[CH2][Pt-]1([Cl])([Cl])[Cl].[K+] (centres unmarked) [4-F-ASA-But-PtCl3, Potassium trichlorido[η^2-(but-3-en-1-yl)-2-acetoxy-4-fluorobenzoate]platinate(II)]
Half-life (τ½) [1]: 49.9 ± 4.5 h
IC50 (HT-29 cells): 89.2 ± 3.5 µM
IC50 (MCF-7 cells): 105.9 ± 0.4 µM

CC(=O)Oc1cccc(F)c1C(=O)OCC[CH]1[CH2][Pt-]1([Cl])([Cl])[Cl].[K+] (centres unmarked) [6-F-ASA-But-PtCl3, Potassium trichlorido[η^2-(but-3-en-1-yl)-2-acetoxy-6-fluorobenzoate]platinate(II)]
Half-life (τ½) [1]: 34.6 ± 1.5 h
IC50 (HT-29 cells): 99.7 ± 0.4 µM
IC50 (MCF-7 cells): 92.6 ± 23.8 µM

CC(=O)Oc1c(Cl)cccc1C(=O)OCC[CH]1[CH2][Pt-]1([Cl])([Cl])[Cl].[K+] (centres unmarked) [3-Cl-ASA-But-PtCl3, Potassium trichlorido[η^2-(but-3-en-1-yl)-2-acetoxy-3-chlorobenzoate]platinate(II)]
Half-life (τ½) [1]: 47.0 ± 14.0 h
IC50 (HT-29 cells): 43 ± 10.9 µM
IC50 (MCF-7 cells): 33.5 ± 1.9 µM

CC(=O)Oc1cc(Cl)ccc1C(=O)OC[CH]1[CH2][Pt-]1([Cl])([Cl])[Cl].[K+] (centres unmarked) [4-Cl-ASA-Prop-PtCl3, Potassium trichlorido[η^2-(prop-2-en-1-yl)-2-acetoxy-4-chlorobenzoate]platinate(II)]
Half-life (τ½) [1]: 0.545 ± 0.03 h
COX-2 selectivity (COX-2; from inhibition at 1 µM, COX-2 over COX-1): 1.5 fold
IC50 (HT-29 cells): 89.8 ± 23.9 µM
IC50 (MCF-7 cells): 70.7 ± 3.6 µM

CC(=O)Oc1ccc(F)cc1C(=O)OCC[CH]1[CH2][Pt-]1([Cl])([Cl])[Cl].[K+] (centres unmarked) [5-F-ASA-But-PtCl3, Potassium trichlorido[η^2-(but-3-en-1-yl)-2-acetoxy-5-fluorobenzoate]platinate(II)]
Half-life (τ½) [1]: 48.1 ± 4.3 h
IC50 (HT-29 cells): 75.8 ± 13.2 µM
IC50 (MCF-7 cells): 93.8 ± 10.8 µM

N.N.[Cl][Pt][Cl] [Cisplatin, reference compound]
IC50 (HT-29 cells): 2.6 ± 0.1 µM
IC50 (MCF-7 cells): 3.7 ± 0.3 µM

CC(=O)Oc1c(C)cccc1C(=O)OCC[CH]1[CH2][Pt-]1([Cl])([Cl])[Cl].[K+] (centres unmarked) [3-CH3-ASA-But-PtCl3, Potassium trichlorido[η^2-(but-3-en-1-yl)-2-acetoxy-3-methylbenzoate]platinate(II)]
Half-life (τ½) [1]: 45.9 ± 6.0 h
IC50 (HT-29 cells): 18 ± 2.4 µM
IC50 (MCF-7 cells): 45.6 ± 7.2 µM

CC(=O)Oc1c(F)cccc1C(=O)OC[CH]1[CH2][Pt-]1([Cl])([Cl])[Cl].[K+] (centres unmarked) [3-F-ASA-Prop-PtCl3, Potassium trichlorido[η^2-(prop-2-en-1-yl)-2-acetoxy-3-fluorobenzoate]platinate(II)]
Half-life (τ½) [1]: 0.508 ± 0.0233 h
Inhibition of COX-2 (COX-2): 20.7%
IC50 (HT-29 cells): 86.9 ± 3.9 µM
IC50 (MCF-7 cells): 85.2 ± 21.8 µM

CC(=O)Oc1cccc(Cl)c1C(=O)OCC[CH]1[CH2][Pt-]1([Cl])([Cl])[Cl].[K+] (centres unmarked) [6-Cl-ASA-But-PtCl3, Potassium trichlorido[η^2-(but-3-en-1-yl)-2-acetoxy-6-chlorobenzoate]platinate(II)]
Half-life (τ½) [1]: 51.8 ± 7.7 h
IC50 (HT-29 cells): 57.5 ± 19.2 µM
IC50 (MCF-7 cells): 42.3 ± 8.3 µM

CC(=O)Oc1cccc(F)c1C(=O)OC[CH]1[CH2][Pt-]1([Cl])([Cl])[Cl].[K+] (centres unmarked) [6-F-ASA-Prop-PtCl3, Potassium trichlorido[η^2-(prop-2-en-1-yl)-2-acetoxy-6-fluorobenzoate]platinate(II)]
Half-life (τ½) [1]: 0.485 ± 0.005 h
IC50 (HT-29 cells): 114 ± 7.1 µM
IC50 (MCF-7 cells): ≥ 200 µM

CC(=O)Oc1cc(C)ccc1C(=O)OCC[CH]1[CH2][Pt-]1([Cl])([Cl])[Cl].[K+] (centres unmarked) [4-CH3-ASA-But-PtCl3, Potassium trichlorido[η^2-(but-3-en-1-yl)-2-acetoxy-4-methylbenzoate]platinate(II)]
Half-life (τ½) [1]: 65.7 ± 7.2 h
IC50 (HT-29 cells): 27.1 ± 1.5 µM
IC50 (MCF-7 cells): 38.8 ± 6.5 µM

CC(=O)Oc1c(C)cccc1C(=O)OC[CH]1[CH2][Pt-]1([Cl])([Cl])[Cl].[K+] (centres unmarked) [3-CH3-ASA-Prop-PtCl3, Potassium trichlorido[η^2-(prop-2-en-1-yl)-2-acetoxy-3-methylbenzoate]platinate(II)]
Half-life (τ½) [1]: 0.585 ± 0.0383 h
IC50 (HT-29 cells): 27.8 ± 3.4 µM
IC50 (MCF-7 cells): 71.4 ± 3.1 µM

CC(=O)Oc1ccc(Cl)cc1C(=O)OCC[CH]1[CH2][Pt-]1([Cl])([Cl])[Cl].[K+] (centres unmarked) [5-Cl-ASA-But-PtCl3, Potassium trichlorido[η^2-(but-3-en-1-yl)-2-acetoxy-5-chlorobenzoate]platinate(II)]
Half-life (τ½) [1]: 62.4 ± 1.6 h
IC50 (HT-29 cells): 49.1 ± 6.2 µM
IC50 (MCF-7 cells): 28.2 ± 4.5 µM

CC(=O)Oc1c(F)cccc1C(=O)OCC[CH]1[CH2][Pt-]1([Cl])([Cl])[Cl].[K+] (centres unmarked) [3-F-ASA-But-PtCl3, Potassium trichlorido[η^2-(but-3-en-1-yl)-2-acetoxy-3-fluorobenzoate]platinate(II)]
Half-life (τ½) [1]: 51.9 ± 2.5 h
IC50 (HT-29 cells): 69.4 ± 1.5 µM
IC50 (MCF-7 cells): 97.4 ± 17.6 µM

CC(=O)Oc1cc(F)ccc1C(=O)OC[CH]1[CH2][Pt-]1([Cl])([Cl])[Cl].[K+] (centres unmarked) [4-F-ASA-Prop-PtCl3, Potassium trichlorido[η^2-(prop-2-en-1-yl)-2-acetoxy-4-fluorobenzoate]platinate(II)]
Half-life (τ½) [1]: 0.535 ± 0.0183 h
Inhibition of COX-2 (COX-2): 17.5%
IC50 (HT-29 cells): 107 ± 3.1 µM
IC50 (MCF-7 cells): 150 ± 33.6 µM

CC(=O)Oc1cccc(C)c1C(=O)OCC[CH]1[CH2][Pt-]1([Cl])([Cl])[Cl].[K+] (centres unmarked) [6-CH3-ASA-But-PtCl3, Potassium trichlorido[η^2-(but-3-en-1-yl)-2-acetoxy-6-methylbenzoate]platinate(II)]
Half-life (τ½) [1]: 35.0 ± 3.7 h
IC50 (HT-29 cells): 20.2 ± 0.2 µM
IC50 (MCF-7 cells): 35.3 ± 0.9 µM

CC(=O)Oc1cccc(C)c1C(=O)OC[CH]1[CH2][Pt-]1([Cl])([Cl])[Cl].[K+] (centres unmarked) [6-CH3-ASA-Prop-PtCl3, Potassium trichlorido[η^2-(prop-2-en-1-yl)-2-acetoxy-6-methylbenzoate]platinate(II)]
Half-life (τ½) [1]: 0.747 ± 0.0183 h
IC50 (HT-29 cells): 27.4 ± 1.4 µM
IC50 (MCF-7 cells): 76.2 ± 1.4 µM

CC(=O)Oc1cccc(Cl)c1C(=O)OC[CH]1[CH2][Pt-]1([Cl])([Cl])[Cl].[K+] (centres unmarked) [6-Cl-ASA-Prop-PtCl3, Potassium trichlorido[η^2-(prop-2-en-1-yl)-2-acetoxy-6-chlorobenzoate]platinate(II)]
Half-life (τ½) [1]: 0.658 ± 0.0317 h
IC50 (HT-29 cells): 38.4 ± 3.4 µM
IC50 (MCF-7 cells): 85.9 ± 9.2 µM

CC(=O)Oc1ccc(F)cc1C(=O)OC[CH]1[CH2][Pt-]1([Cl])([Cl])[Cl].[K+] (centres unmarked) [5-F-ASA-Prop-PtCl3, Potassium trichlorido[η^2-(prop-2-en-1-yl)-2-acetoxy-5-fluorobenzoate]platinate(II)]
Half-life (τ½) [1]: 0.46 ± 0.02 h
IC50 (HT-29 cells): 110 ± 21.7 µM
IC50 (MCF-7 cells): 106 ± 4.1 µM
